# According to PubChem BioAssay AID1259407 (Chemical Carcinogenesis Research Information System (CCRIS), 2018):
# Calls of active or inactive are those of the source. No rule for the calls is given here.
# System: CCRIS mutagenicity, Ames/micronucleus/aberration tests
# Test: CCRIS mutagenicity studies
# [1] = Test System: AMES SALMONELLA TYPHIMURIUM, Strain/Indicator: TA100, Metabolic Activation: NONE, Method: STANDARD PLATE
# [2] = Test System: AMES SALMONELLA TYPHIMURIUM, Strain/Indicator: TA1537, Metabolic Activation: NONE, Method: STANDARD PLATE
compound,measurement,setting,value
CNC(=C[N+](=O)[O-])NCCSCc1ccc(CN(C)C)o1,mutagenic call,"Test System: AMES SALMONELLA TYPHIMURIUM, Strain/Indicator: TA92, Metabolic Activation: NONE, Method: PREINCUBATION",inactive; negative
same,mutagenic call,"Test System: AMES SALMONELLA TYPHIMURIUM, Strain/Indicator: TA92, Metabolic Activation: RAT, LIVER, S-9, PHENOBARBITAL AND 5,6-BENZOFLAVONE, Method: PREINCUBATION",inactive; negative
same,mutagenic call,"Test System: AMES SALMONELLA TYPHIMURIUM, Strain/Indicator: TA94, Metabolic Activation: NONE, Method: PREINCUBATION",inactive; negative
same,mutagenic call,"Test System: AMES SALMONELLA TYPHIMURIUM, Strain/Indicator: TA94, Metabolic Activation: RAT, LIVER, S-9, PHENOBARBITAL AND 5,6-BENZOFLAVONE, Method: PREINCUBATION",inactive; negative
same,mutagenic call,"Test System: AMES SALMONELLA TYPHIMURIUM, Strain/Indicator: TA98, Metabolic Activation: NONE, Method: PREINCUBATION",inactive; negative
same,mutagenic call,"Test System: AMES SALMONELLA TYPHIMURIUM, Strain/Indicator: TA98, Metabolic Activation: RAT, LIVER, S-9, PHENOBARBITAL AND 5,6-BENZOFLAVONE, Method: PREINCUBATION",inactive; negative
same,mutagenic call,"Test System: AMES SALMONELLA TYPHIMURIUM, Strain/Indicator: TA100, Metabolic Activation: NONE, Method: PREINCUBATION",inactive; negative
same,mutagenic call,"Test System: AMES SALMONELLA TYPHIMURIUM, Strain/Indicator: TA100, Metabolic Activation: RAT, LIVER, S-9, PHENOBARBITAL AND 5,6-BENZOFLAVONE, Method: PREINCUBATION",inactive; negative
same,mutagenic call,"Test System: AMES SALMONELLA TYPHIMURIUM, Strain/Indicator: TA1535, Metabolic Activation: NONE, Method: PREINCUBATION",inactive; negative
same,mutagenic call,"Test System: AMES SALMONELLA TYPHIMURIUM, Strain/Indicator: TA1535, Metabolic Activation: RAT, LIVER, S-9, PHENOBARBITAL AND 5,6-BENZOFLAVONE, Method: PREINCUBATION",inactive; negative
same,mutagenic call,"Test System: AMES SALMONELLA TYPHIMURIUM, Strain/Indicator: TA1537, Metabolic Activation: NONE, Method: PREINCUBATION",inactive; negative
same,mutagenic call,"Test System: AMES SALMONELLA TYPHIMURIUM, Strain/Indicator: TA1537, Metabolic Activation: RAT, LIVER, S-9, PHENOBARBITAL AND 5,6-BENZOFLAVONE, Method: PREINCUBATION",inactive; negative
same,mutagenic call,"Test System: AMES SALMONELLA TYPHIMURIUM, Strain/Indicator: TA1538, Metabolic Activation: NONE, Method: PREINCUBATION",inactive; negative
same,mutagenic call,"Test System: AMES SALMONELLA TYPHIMURIUM, Strain/Indicator: TA1538, Metabolic Activation: RAT, LIVER, S-9, PHENOBARBITAL AND 5,6-BENZOFLAVONE, Method: PREINCUBATION",inactive; negative
same,mutagenic call,"Test System: E. COLI, Strain/Indicator: WP2 UVRA, Metabolic Activation: NONE, Method: PREINCUBATION",inactive; negative
same,mutagenic call,"Test System: E. COLI, Strain/Indicator: WP2 UVRA, Metabolic Activation: RAT, LIVER, S-9, PHENOBARBITAL AND 5,6-BENZOFLAVONE, Method: PREINCUBATION",inactive; negative
c1ccc(-c2cccc(-c3ccccn3)n2)nc1,mutagenic call,"Test System: AMES SALMONELLA TYPHIMURIUM, Strain/Indicator: TA97, Metabolic Activation: RAT, LIVER, S-9, PHENOBARBITAL, Method: STANDARD PLATE",active; positive
same,mutagenic call,"Test System: AMES SALMONELLA TYPHIMURIUM, Strain/Indicator: TA98, Metabolic Activation: RAT, LIVER, S-9, PHENOBARBITAL, Method: STANDARD PLATE",inactive; negative
same,mutagenic call,"Test System: AMES SALMONELLA TYPHIMURIUM, Strain/Indicator: TA100, Metabolic Activation: RAT, LIVER, S-9, PHENOBARBITAL, Method: STANDARD PLATE",active; positive
same,mutagenic call,"Test System: AMES SALMONELLA TYPHIMURIUM, Strain/Indicator: TA1535, Metabolic Activation: RAT, LIVER, S-9, PHENOBARBITAL, Method: STANDARD PLATE",inactive; negative
same,mutagenic call,"Test System: AMES SALMONELLA TYPHIMURIUM, Strain/Indicator: TA1537, Metabolic Activation: RAT, LIVER, S-9, PHENOBARBITAL, Method: STANDARD PLATE",inactive; negative
same,mutagenic call,"Test System: AMES SALMONELLA TYPHIMURIUM, Strain/Indicator: TA1538, Metabolic Activation: RAT, LIVER, S-9, PHENOBARBITAL, Method: STANDARD PLATE",inactive; negative
CC(C)CC(=O)Nc1snc2ccc(Cl)cc12,mutagenic call,[1],inactive; negative
same,mutagenic call,"Test System: AMES SALMONELLA TYPHIMURIUM, Strain/Indicator: TA100, Metabolic Activation: S-9, Method: STANDARD PLATE",inactive; negative
same,mutagenic call,[2],inactive; negative
same,mutagenic call,"Test System: AMES SALMONELLA TYPHIMURIUM, Strain/Indicator: TA1537, Metabolic Activation: S-9, Method: STANDARD PLATE",inactive; negative
C1CCC2(CC1)CO2,mutagenic call,[1],inactive; negative
COc1ccc(-c2coc3cc(O)cc(O)c3c2=O)cc1,mutagenic call,"Test System: AMES SALMONELLA TYPHIMURIUM, Strain/Indicator: TA98, Metabolic Activation: HAMSTER, LIVER, S-9, AROCLOR 1254, Method: STANDARD PLATE",inactive; negative
same,mutagenic call,"Test System: AMES SALMONELLA TYPHIMURIUM, Strain/Indicator: TA98, Metabolic Activation: NONE, Method: STANDARD PLATE",inactive; negative
same,mutagenic call,"Test System: AMES SALMONELLA TYPHIMURIUM, Strain/Indicator: TA98, Metabolic Activation: RAT, LIVER, S-9, AROCLOR 1254, Method: STANDARD PLATE",inactive; negative
same,mutagenic call,"Test System: AMES SALMONELLA TYPHIMURIUM, Strain/Indicator: TA100, Metabolic Activation: HAMSTER, LIVER, S-9, AROCLOR 1254, Method: STANDARD PLATE",inactive; negative
same,mutagenic call,[1],inactive; negative
same,mutagenic call,"Test System: AMES SALMONELLA TYPHIMURIUM, Strain/Indicator: TA100, Metabolic Activation: RAT, LIVER, S-9, AROCLOR 1254, Method: STANDARD PLATE",inactive; negative
same,mutagenic call,"Test System: AMES SALMONELLA TYPHIMURIUM, Strain/Indicator: TA1535, Metabolic Activation: HAMSTER, LIVER, S-9, AROCLOR 1254, Method: STANDARD PLATE",inactive; negative
same,mutagenic call,"Test System: AMES SALMONELLA TYPHIMURIUM, Strain/Indicator: TA1535, Metabolic Activation: NONE, Method: STANDARD PLATE",inactive; negative
same,mutagenic call,"Test System: AMES SALMONELLA TYPHIMURIUM, Strain/Indicator: TA1535, Metabolic Activation: RAT, LIVER, S-9, AROCLOR 1254, Method: STANDARD PLATE",inactive; negative
same,mutagenic call,"Test System: AMES SALMONELLA TYPHIMURIUM, Strain/Indicator: TA1537, Metabolic Activation: HAMSTER, LIVER, S-9, AROCLOR 1254, Method: STANDARD PLATE",inactive; negative
same,mutagenic call,[2],inactive; negative
same,mutagenic call,"Test System: AMES SALMONELLA TYPHIMURIUM, Strain/Indicator: TA1537, Metabolic Activation: RAT, LIVER, S-9, AROCLOR 1254, Method: STANDARD PLATE",inactive; negative
same,mutagenic call,"Test System: AMES SALMONELLA TYPHIMURIUM, Strain/Indicator: TA1538, Metabolic Activation: HAMSTER, LIVER, S-9, AROCLOR 1254, Method: STANDARD PLATE",inactive; negative
same,mutagenic call,"Test System: AMES SALMONELLA TYPHIMURIUM, Strain/Indicator: TA1538, Metabolic Activation: NONE, Method: STANDARD PLATE",inactive; negative
same,mutagenic call,"Test System: AMES SALMONELLA TYPHIMURIUM, Strain/Indicator: TA1538, Metabolic Activation: RAT, LIVER, S-9, AROCLOR 1254, Method: STANDARD PLATE",inactive; negative
same,mutagenic call,"Test System: MOUSE LYMPHOMA, Strain/Indicator: L5178Y (TK+/TK-), Metabolic Activation: NONE, Method: SUSPENSION/PLATE",active; positive. reevaluation of results: inconclusive
same,mutagenic call,"Test System: MOUSE LYMPHOMA, Strain/Indicator: L5178Y (TK+/TK-), Metabolic Activation: RAT, LIVER, S-9, AROCLOR 1254, Method: SUSPENSION/PLATE",active; positive. reevaluation of results: positive
same,mutagenic call,"Test System: SYRIAN HAMSTER EMBRYO CELLS, Strain/Indicator: HPRT/6-THIOGUANINE, Metabolic Activation: NONE, Method: PLATE",inactive; negative
